# pEC50: −log10 of the molar value.
# Assays:
# Format in all cases: functional
# L1210 = experiment: Cytotoxic activity against the L1210 cell cultures; settings: Mus musculus, read-out: ED50 (the source's name)
# CCRF S-180 = experiment: Cytotoxic activity against the S180 cell cultures; settings: Mus musculus, read-out: ED50 (the source's name)
# W256 = experiment: Cytotoxic activity against the Walker 256 carcinosarcoma in rats; settings: Rattus norvegicus, read-out: ED50 (the source's name)
Structure (SMILES),pEC50 (L1210),pEC50 (CCRF S-180),pEC50 (W256)
CN(Cc1cnc2nc(N)nc(N)c2n1)c1ccc(C(=O)N[C@@H](CCC(=O)O)C(=O)O)cc1 [METHOTREXATE],7.80,7.80,7.70
Cc1nc(N)nc(N)c1-c1ccc(Cl)c(Cl)c1 [METOPRINE],6.66,7.30,7.30
COc1ccc(OC)c(Cc2cnc3nc(N)nc(N)c3c2C)c1 [PIRITREXIM],8.70,7.92,8.10
